Test results published in PubChem BioAssay AID1918957 (Molecular Pharmacology Branch, DTP, NCI, 2023).
“And” between values parts separate entries of the source, which are not always exact repeats. Identical values can stand only once. Each block holds one compound with its values, some of them ahead of it.

Tested on: NCI-H1876 complex spheroid viability
Assay: Anticancer human tumor NCI-H1876 cell line growth inhibition [LSD1];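 also: spheroids exposed to compounds for one week before readout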;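 as to viability, T/C: 100% = DMSO vehicle-treated spheroids so lower means fewer viable cells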
Conditions: for viability, T/C: stronger effect = lower value
Text: Multicellular complex tumor spheroid response to LSD1 Inhibitor Iadademstat in combination with a variety of drugs and investigational agents in selected tumor cell lines
The current study was undertaken to assess response to LSD1 inhibitors in combination with standard-of-care drugs and investigational agents in solid tumor complex spheroid models as well as in the K-562 leukemia. Complex spheroids include a stromal component modeled by human endothelial cells (HUVEC) and fibroblasts modeled by human mesenchymal stem cells (MSCs). The concentration ranges selected for each drug and investigational agent were based upon clinically achievable concentrations if the clinical Cmax of the agent was known.
Compounds. The drugs and investigational agents used in this study are listed on Table 1. All of the agents used, including staurosporine (NSC755774) and gemcitabine (NSC613327), were obtained from the Developmental Therapeutics Program, NCI. FDA-approved anticancer drugs are available from the NCI at http://dtp.nci.nih.gov/branches/dscb/oncology_drugset_explanation.html. Drugs and investigational agents were >95% pure by proton nuclear magnetic resonance (NMR) and liquid chromatography/mass spectrometry (LC/MS). Stock solutions were prepared at 400x in DMSO, stored at -70 degrees C, and diluted in fresh medium prior to their use. The final concentration of DMSO in cell culture wells never exceeded 0.25% (v/v). The FDA-approved anticancer drug set is available from the Developmental Therapeutics Program at https://dtp.cancer.gov/organization/dscb/obtaining/available_plates.htm. All drugs and investigational agents were tested over a range starting from a high concentration at or near the clinical Cmax and decreasing in half-log increments. If the clinical Cmax for an agent had not been determined, the highest concentration tested was 10 microM.
Cell Lines. The patient-derived cancer cell (PDC) lines: 292921-168-R-J2-PDC, K24384-001-R-PDC, and 521955-158-R2-J5-PDC pancreatic carcinomas, 556581-035-R-J1 ovarian carcinoma, 324938-238-R-J1-PDC, 855422-203-R-J1-PDC and 883617-216-R-J1-PDC urothelial bladder carcinomas, 743489-274-T-PDC renal cell carcinoma, 138582-R-J1 Merkel cell tumor, K60290-347-R-J1 and K57222-313-R-J1-PDC glioblastomas, 653999-131-R-J2-PDC, LG0703-F948-PDC, and 349418-098-R-PDC non-small cell lung carcinomas, 885512-296-R-J2-PDC, 171881-019-R-J1-PDC breast carcinomas and 186277-243-T-J2-PDC and 233499-124-R-J2-PDC colon carcinomas were obtained from the NCI Patient-Derived Models Repository (PDMR, https://pdmr.cancer.gov). The established cell lines NCI/ADR-RES (RRID:CVCL_14520 and OVCAR-5 (RRID:CVCL_1628) ovarian carcinomas, 786-O (RRID:CVCL_1051) and A498 (RRID:CVCL_A498) renal cell carcinoma, NCI-H211 (ATCC, cat. CRL-5824; RRID:CVCL_1529), NCI-H196 (ATCC, cat. CRL-5823, RRID:CVCL_1509), SW 1271 (ATCC, cat. CRL-2177, RRID:CVCL_1716) and NCI-H1876 (ATCC, cat. CRL-5902, RRID:CVCL_1503) small cell lung carcinomas, MDA-MB-231 (RRID:CVCL_0062) and MDA-MB-468 (RRID:CVCL_0419)breast carcinomas (10-12). Pooled donor human umbilical vein endothelial cells (HUVEC, Lonza, cat. CC-2519) and human mesenchymal stem cells (hMSC, Lonza, cat. PT-2501) were purchased from Lonza (Walkersville, MD).
Cell Culture. All cells were maintained in an incubator at 37 degrees C and 5% CO2 with 95% humidity. The PDC lines were cultured according to standard operating procedures established by the NCI PDMR (https://pdmr.cancer.gov). Briefly all PDCs were thawed and cultured in Matrigel-coated flasks prepared with a working solution of 1X Ham's F-12 nutrient mix, without supplementation (Invitrogen, Waltham, MA, cat. 11765054), 100 U/mL penicillin-streptomycin (Invitrogen, cat. 15140122), and 2.5% Matrigel (Corning Inc., Corning, NY, cat. 354248) for the first three passages. […]

[1] = curve of first compound, second compound 0.1 µM
[2] = curve of first compound, second compound 0.316 µM
[3] = curve of first compound, second compound 1 µM
[4] = curve of first compound, second compound 3.16 µM
[5] = curve of first compound, second compound 10 µM
[6] = second compound 0.1 µM, first compound 0.00949 µM
[7] = second compound 0.1 µM, first compound 0.03 µM
[8] = second compound 0.1 µM, first compound 0.0949 µM
[9] = second compound 0.1 µM, first compound 0.3 µM
[10] = second compound 0.316 µM, first compound 0.00949 µM
[11] = second compound 0.316 µM, first compound 0.03 µM
[12] = second compound 0.316 µM, first compound 0.0949 µM
[13] = second compound 0.316 µM, first compound 0.3 µM
[14] = second compound 1 µM, first compound 0.00949 µM
[15] = second compound 1 µM, first compound 0.03 µM
[16] = second compound 1 µM, first compound 0.0949 µM
[17] = second compound 1 µM, first compound 0.3 µM
[18] = second compound 3.16 µM, first compound 0.00949 µM
[19] = second compound 3.16 µM, first compound 0.03 µM
[20] = second compound 3.16 µM, first compound 0.0949 µM
[21] = second compound 3.16 µM, first compound 0.3 µM
[22] = second compound 10 µM, first compound 0.00949 µM
[23] = second compound 10 µM, first compound 0.03 µM
[24] = second compound 10 µM, first compound 0.0949 µM
[25] = second compound 10 µM, first compound 0.3 µM

Compound: O=C(c1cc(Cc2n[nH]c(=O)c3ccccc23)ccc1F)N1CCN(C(=O)C2CC2)CC1 + NC1CCC(NC2CC2c2ccccc2)CC1
- IC50 [1]: 6.62 µM
- IC50 [2]: 6.16 µM
- IC50 [3]: 6.13 µM
- IC50 [4]: 5.37 µM
- IC50 [5]: 5.05 µM
- viability, T/C (second compound 0.1 µM, first compound 0.0316 µM): 90.7%
- viability, T/C (second compound 0.1 µM, first compound 0.1 µM): 99.4%
- viability, T/C (second compound 0.1 µM, first compound 0.316 µM): 89.4%
- viability, T/C (second compound 0.1 µM, first compound 1 µM): 94.8%
- viability, T/C (second compound 0.1 µM, first compound 3.16 µM): 76.2%
- viability, T/C (second compound 0.1 µM, first compound 10 µM): 35.4%
- viability, T/C (second compound 0.316 µM, first compound 0.0316 µM): 99.2%
- viability, T/C (second compound 0.316 µM, first compound 0.1 µM): 93%
- viability, T/C (second compound 0.316 µM, first compound 0.316 µM): 89.4%
- viability, T/C (second compound 0.316 µM, first compound 1 µM): 87.2%
- viability, T/C (second compound 0.316 µM, first compound 3.16 µM): 69.5%
- viability, T/C (second compound 0.316 µM, first compound 10 µM): 35.5%
- viability, T/C (second compound 1 µM, first compound 0.0316 µM): 90.2%
- viability, T/C (second compound 1 µM, first compound 0.1 µM): 93%
- viability, T/C (second compound 1 µM, first compound 0.316 µM): 91.5%
- viability, T/C (second compound 1 µM, first compound 1 µM): 79.7%
- viability, T/C (second compound 1 µM, first compound 3.16 µM): 70.5%
- viability, T/C (second compound 1 µM, first compound 10 µM): 35.8%
- viability, T/C (second compound 3.16 µM, first compound 0.0316 µM): 90.7%
- viability, T/C (second compound 3.16 µM, first compound 0.1 µM): 95.4%
- viability, T/C (second compound 3.16 µM, first compound 0.316 µM): 86.7%
- viability, T/C (second compound 3.16 µM, first compound 1 µM): 86.7%
- viability, T/C (second compound 3.16 µM, first compound 3.16 µM): 64.5%
- viability, T/C (second compound 3.16 µM, first compound 10 µM): 32.7%
- viability, T/C (second compound 10 µM, first compound 0.0316 µM): 95.7%
- viability, T/C (second compound 10 µM, first compound 0.1 µM): 90.6%
- viability, T/C (second compound 10 µM, first compound 0.316 µM): 85.9%
- viability, T/C (second compound 10 µM, first compound 1 µM): 79.8%
- viability, T/C (second compound 10 µM, first compound 3.16 µM): 64.6%
- viability, T/C (second compound 10 µM, first compound 10 µM): 29.9%

Compound: CCc1c2c(nc3ccc(O)cc13)-c1cc3c(c(=O)n1C2)COC(=O)[C@]3(O)CC + NC1CCC(NC2CC2c2ccccc2)CC1
- IC50 [1]: < 0.000949 µM
- IC50 [2]: < 0.000949 µM
- IC50 [3]: < 0.000949 µM
- IC50 [4]: < 0.000949 µM
- IC50 [5]: < 0.000949 µM
- viability, T/C (second compound 0.1 µM, first compound 0.000949 µM): 8.41%
- viability, T/C (second compound 0.1 µM, first compound 0.003 µM): 6.69%
- viability, T/C [6]: 4.51%
- viability, T/C [7]: 17%
- viability, T/C [8]: 0.42%
- viability, T/C [9]: 0.51%
- viability, T/C (second compound 0.316 µM, first compound 0.000949 µM): 9.1%
- viability, T/C (second compound 0.316 µM, first compound 0.003 µM): 7.39%
- viability, T/C [10]: 26.4%
- viability, T/C [11]: 34.6%
- viability, T/C [12]: 0.46%
- viability, T/C [13]: 0.47%
- viability, T/C (second compound 1 µM, first compound 0.000949 µM): 9.13%
- viability, T/C (second compound 1 µM, first compound 0.003 µM): 7.08%
- viability, T/C [14]: 3.54%
- viability, T/C [15]: 16.9%
- viability, T/C [16]: 0.38%
- viability, T/C [17]: 0.41%
- viability, T/C (second compound 3.16 µM, first compound 0.000949 µM): 7.88%
- viability, T/C (second compound 3.16 µM, first compound 0.003 µM): 7%
- viability, T/C [18]: 4.05%
- viability, T/C [19]: 8.64%
- viability, T/C [20]: 0.31%
- viability, T/C [21]: 0.45%
- viability, T/C (second compound 10 µM, first compound 0.000949 µM): 9.76%
- viability, T/C (second compound 10 µM, first compound 0.003 µM): 7.48%
- viability, T/C [22]: 31.4%
- viability, T/C [23]: 8.78%
- viability, T/C [24]: 15.6%
- viability, T/C [25]: 0.65%

Compound: CCN(c1cc(-c2ccc(CN3CCOCC3)cc2)cc(C(=O)NCc2c(C)cc(C)[nH]c2=O)c1C)C1CCOCC1 + NC1CC1c1ccc(-c2cccc(O)c2)cc1
- IC50 [1]: > 3 µM
- IC50 [2]: > 3 µM
- IC50 [3]: > 3 µM
- IC50 [4]: > 3 µM
- IC50 [5]: > 3 µM
- viability, T/C [6]: 110%
- viability, T/C [7]: 109%
- viability, T/C [8]: 110%
- viability, T/C [9]: 99.6%
- viability, T/C (second compound 0.1 µM, first compound 0.949 µM): 86.6%
- viability, T/C (second compound 0.1 µM, first compound 3 µM): 54.8%
- viability, T/C [10]: 102%
- viability, T/C [11]: 106%
- viability, T/C [12]: 102%
- viability, T/C [13]: 94.1%
- viability, T/C (second compound 0.316 µM, first compound 0.949 µM): 77.3%
- viability, T/C (second compound 0.316 µM, first compound 3 µM): 54.1%
- viability, T/C [14]: 111%
- viability, T/C [15]: 112%
- viability, T/C [16]: 104%
- viability, T/C [17]: 102%
- viability, T/C (second compound 1 µM, first compound 0.949 µM): 88.2%
- viability, T/C (second compound 1 µM, first compound 3 µM): 60%
- viability, T/C [18]: 109%
- viability, T/C [19]: 108%
- viability, T/C [20]: 107%
- viability, T/C [21]: 97.5%
- viability, T/C (second compound 3.16 µM, first compound 0.949 µM): 83.8%
- viability, T/C (second compound 3.16 µM, first compound 3 µM): 57.8%
- viability, T/C [22]: 106%
- viability, T/C [23]: 99.9%
- viability, T/C [24]: 111%
- viability, T/C [25]: 100%
- viability, T/C (second compound 10 µM, first compound 0.949 µM): 79.9%
- viability, T/C (second compound 10 µM, first compound 3 µM): 55.3%

- IC50 (compound alone, run of 02/21/2022): > 10 µM
Compound: NC1CC1c1ccc(-c2cccc(O)c2)cc1 (centres undefined)
- viability, T/C (compound 0.1 µM): 94%

- IC50 (curve of compound): > 1 µM
Compound: Nc1ncn(C2CC(O)C(CO)O2)c(=O)n1 (centres undefined)
- viability, T/C (compound 0.00316 µM): 97.2% and 101%
- viability, T/C (compound 0.01 µM): 96.9% and 105%
- viability, T/C (compound 0.0316 µM): 102% and 103%
- viability, T/C (compound 0.1 µM): 97.4% and 97%
- viability, T/C (compound 0.316 µM): 86.7% and 106%
- viability, T/C (compound 1 µM): 86% and 83.6%
